Read-outs that look alike come from different tables or passages of the source.
Assays:
QPCTL = target: T1, QPCTL (Homo sapiens, UniProt Q9NXS2); assay: Assay A: biochemical QPCTL activity assay (MALDI-TOF MS, CD47 peptide substrate); conditions: read-out: Inhibition of QPCTL: IC50
T1 construct: made in house
Method: (§1) QPCT or QPCTL dependent conversion of N-terminal glutamine to pyroglutamate of CD47 was monitored via MALDI-TOF MS. Test compounds were dissolved in 100% DMSO and serially diluted into clear 1,536-well microtiter plates. Enzymatic reactions were set up in assay buffer containing 20 mM Tris pH 7.5, 0.1 mM TCEP, 0.01% BSA, and 0.001% Tween20. […] The plates were incubated for 10 min in a humidified incubator at 24° C. Subsequently, 2.5 μL of CD47 peptide substrate surrogate (^19[…]^33) was added to each well (final concentration: 10 μM for QPCTL/20 μM for QPCT). The plates were mixed for 30 sec at 1,000 rpm and subsequently incubated for 40 min in a humidified incubator at 24° C. […] The plates were sealed with an adhesive foil, mixed for 30 s at 1,000 rpm and stored at room temperature until preparation of the MALDI target plates. MALDI target plates were prepared as described previously. […] QPCT or QPCTL activity was monitored by calculating the ratio between product and internal standard signals followed by normalization to high (100% activity) and low (0% activity) controls. Determination of compound potencies was obtained by fitting the dose-response data to a four-parameter logistical equation.

QPCT = target: T2, QPCT (Homo sapiens, UniProt Q16769); assay: Assay A: biochemical QPCT activity assay (MALDI-TOF MS, CD47 peptide substrate); conditions: read-out: Inhibition of QPCT: IC50
T2 construct: purchased Origine (OriGene) TP700028
T2 sequence (Q16769 29-361): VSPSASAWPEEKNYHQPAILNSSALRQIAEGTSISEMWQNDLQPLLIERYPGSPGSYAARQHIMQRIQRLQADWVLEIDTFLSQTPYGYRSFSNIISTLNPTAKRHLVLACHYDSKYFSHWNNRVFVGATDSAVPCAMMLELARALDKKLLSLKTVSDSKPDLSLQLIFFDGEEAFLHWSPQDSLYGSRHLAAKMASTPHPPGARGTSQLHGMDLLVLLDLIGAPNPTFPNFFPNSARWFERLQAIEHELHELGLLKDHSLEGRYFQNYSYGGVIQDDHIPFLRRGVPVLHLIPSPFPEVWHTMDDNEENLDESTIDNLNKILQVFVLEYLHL
Method: as §1

[1] = test system: SIRPα signalling induced by Raji cells; assay: Assay B: SIRPα signalling assay using Raji cells; type: cell-based; conditions: Homo sapiens, read-out: Inhibition of SIRPα signalling induced by Raji cells: IC50
Method: Bioassay reagent 1 of the PathHunter Bioassay detection kit (DiscoverX 93-0001) was added to each well of the plate using a multichannel pipette followed by a 15 min incubation at room temperature. Afterwards bioassay reagent 2 was added followed by 60 min incubation at room temperature (incubation in the dark).
(§2) The analysis of the data was performed using the luminescence signal generated by beta-galactosidase in the PathHunter reporter cell line. The luminescence measurement was done using a Pherastar Multi-Mode Reader.

[2] = test system: SIRPα signalling induced by A549 cells; assay: Assay B: SIRPα signalling assay using A549 cells; type: cell-based; conditions: Homo sapiens, read-out: Inhibition of SIRPα signalling induced by A549 cells: IC50
Method: Two cell types are independently used: the Raji cell line (lymphoblast-like human cell line derived from B lymphocytes from a Burkitt's lymphoma patient in 1963) and A549 cells (adenocarcinoma human alveolar basal epithelial cells).
Test compounds were dissolved in 100% DMSO and serially diluted into a white 384-well microtiter cell culture plate (PerkinElmer #60076780 in case of Raji assay; PDL-coated plates Greiner #781945 in case of A549 assay). 5000 Raji cells (ATCC #CC86) or 5000 A549 cells (ATCC #CCL-185) in Assay Complete Cell Plating reagent 30 (DiscoverX 93-0563R30B) were added per well. The assay plate was incubated for 48 h at 37° C., 95% humidity and 5% CO2. 15000 reporter cells (Jurkat PathHunter SIRPαV1, DiscoverX #93-1135C19) were added to each well, and the plate was incubated for 5 h at 37° C., 95% humidity and 5% CO2. Bioassay reagent 1 of the PathHunter Bioassay detection kit (DiscoverX 93-0001) was added to each well of the plate using a multichannel pipette followed by a 15 min incubation at room temperature. Afterwards bioassay reagent 2 was added followed by 60 min incubation at room temperature (incubation in the dark).
as §2, with “Reader. Dose-response curves & IC50 data were calculated with 4-parameter sigmoidal dose response formula.” for “Reader.”

[3] = Assay C: permeability in CACO-2 cells; type: in vitro ADME; conditions: human; for efflux ratio: read-out: Efflux Ratio
Method: Caco-2 cells (1-2×10^5 cells/1 cm^2 area) are seeded on filter inserts (Costar transwell polycarbonate or PET filters, 0.4 μm pore size) and cultured (DMEM) for 10 to 25 days. Compounds are dissolved in appropriate solvent (like DMSO, 1-20 mM stock solutions). […] The transport solution (TL) is applied to the apical or basolateral donor side for measuring A-B or B-A permeability (3 filter replicates), respectively. Samples are collected at the start and end of experiment from the donor and at various time intervals for up to 2 hours also from the receiver side for concentration measurement by HPLC-MS/MS or scintillation counting. Sampled receiver volumes are replaced with fresh receiver solution.
Efflux ratio (ER)=permeability B−A/permeability A−B

CYP3A4 mRNA = assay: Assay D: CYP induction screening assay in primary human hepatocytes; type: in vitro ADME; conditions: 48 h
Method: Cryopreserved plateable human hepatocytes (single donor. BioIVT) were thawed and plated in Collagen-I coated 96-well-plates at a cell density of 0.07 million cells per well.
After a 6 h attachment period, the seeding medium was replaced by serum-free William's medium E supplemented with Matrigel (0.25 mg/ml) and allowed to recover overnight. 24 h post-seeding, serum-free Williams E medium containing the test compound at a final concentration of […] and a final DMSO content of 0.1% and 0.1% DMSO (solvent-treated control), respectively, was added to predefined wells. Exposure solutions were renewed after 24 h.
After 48 h of treatment in total, the effect of the test compounds on CYP3A4 mRNA expression was assessed using the QuantiGene Plex Gene Expression Assay. Hepatocytes were lysed and total RNA was extracted using the QuantiGene Sample Processing Kit according to the instructions of the manufacturer.
mRNA quantification was conducted using a customized QuantiGene Plex Panel to analyse CYP3A4 and the housekeeper genes RPL32, EIF4E2 and GUSB according to the instructions of the manufacturer and measured on a Luminex™ instrument. Signal was reported as median fluorescence intensity (MFI), which is proportional to the number of target RNA molecules present in the sample.
For calculation of CYP3A4 mRNA induction, the signal for CYP3A4 was normalized against the geometric mean of the signal obtained for the housekeeper genes for hepatocytes exposed to test compounds in relation to solvent-treated samples according to the following equation: […]

murine hepatocytes = assay: Assay E: stability in murine hepatocytes; type: in vitro ADME, mouse; conditions: 1 μM, 5% species serum
Method: The metabolic degradation of the test compound is assayed in a murine hepatocyte suspension.
Murine hepatocytes (typically cryopreserved) are incubated in an appropriate buffer system (e.g. Dulbecco's modified eagle medium plus 3.5 μg glucagon/500 mL, 2.5 mg insulin/500 mL and 3.75 mg/500 mL hydrocortison) containing 5% species serum.
Following a (typically) 30 min preincubation in an incubator (37° C., 10% CO2) 5 μl of test compound solution (80 μM; from 2 mM in DMSO stock solution diluted 1:25 with medium) are added into 395 μl hepatocyte suspension (cell density in the range 0.25-5 Mio cells/mL, typically 1 Mio cells/mL; final concentration of test compound 1 μM, final DMSO concentration 0.05%).
The cells are incubated for six hours (incubator, orbital shaker) and samples (25 μl) are taken at 0, 0.5, 1, 2, 4 and 6 hours. Samples are transferred into acetonitrile and pelleted by centrifugation (5 min). The supernatant is transferred to a new 96-deepwell plate, evaporated under nitrogen and resuspended.
Decline of parent compound is analyzed by HPLC-MS/MS
CLint is calculated as follows CL_[…]=Dose/AUC=(C0/CD)/(AUD+clast/k)×1000/60. C0: initial concentration in the incubation [μM], CD: cell density of vital cells [10e6 cells/mL], AUD: area under the data [μM×h], clast: concentration of last data point [μM], k: slope of the regression line for parent decline [h−1].
The calculated in vitro hepatic intrinsic clearance can be scaled up to the intrinsic in vivo hepatic Clearance and used to predict hepatic in vivo blood clearance (CL) by the use of a liver model (well stirred model).
[formula] [formula] [formula] • Hepatocellularity, mouse: 120×10e6 cells/g liver • Liver factor, mouse: 55 g/kg bodyweight • Blood flow, mouse: 90 ml/(min×kg)

[4] = Table 2, compounds of the invention
[5] = Table 4, compounds of the invention
[6] = pH 7.2, Table 7, compounds of the invention, CACO-2 cells
[7] = pH 7.2, Table 7, compounds of the invention, CACO-2 cells, permeability B-A/permeability A-B
[8] = Table 9, compounds of the invention
[9] = Table 12, compounds of the invention

T1 sequence (Q9NXS2 whole entry, species assumed): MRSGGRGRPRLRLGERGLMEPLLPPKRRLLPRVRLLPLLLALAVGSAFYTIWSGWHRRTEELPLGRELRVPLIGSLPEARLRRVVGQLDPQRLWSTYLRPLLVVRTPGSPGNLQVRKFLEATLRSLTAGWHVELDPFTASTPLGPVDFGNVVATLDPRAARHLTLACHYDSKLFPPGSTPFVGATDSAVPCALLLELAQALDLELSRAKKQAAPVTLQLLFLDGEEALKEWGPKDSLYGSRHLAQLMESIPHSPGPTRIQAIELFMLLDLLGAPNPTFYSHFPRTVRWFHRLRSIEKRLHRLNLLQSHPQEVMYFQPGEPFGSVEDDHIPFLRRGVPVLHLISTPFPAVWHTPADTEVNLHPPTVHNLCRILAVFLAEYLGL

Row | IC50 (QPCTL; Table 3, prior art compounds) [nM] | IC50 (QPCT; Table 3, prior art compounds) [nM] | IC50 ([1]; Table 5, prior art compounds) [nM] | IC50 ([2]; Table 5, prior art compounds) [nM] | Papp A→B ([3]; Caco-2, pH 7.2) [×10⁻⁶ cm/s] | efflux ratio ([3]; Caco-2, pH 7.2) | n-fold induction of CYP3A4 at 10 μM (CYP3A4 mRNA; Table 10, prior art compounds) [n-fold] | Mouse Hepatocyte Stability QH (murine hepatocytes; Table 13, prior art compounds) [%] | IC50 (QPCTL; [4]) [nM] | IC50 (QPCT; [4]) [nM] | IC50 [1, 5] [nM] | IC50 [2, 5] [nM] | Papp A→B [3, 6] [×10⁻⁶ cm/s] | efflux ratio [3, 7] | n-fold induction of CYP3A4 at 10 μM (CYP3A4 mRNA; [8]) [n-fold] | Mouse Hepatocyte Stability QH (murine hepatocytes; [9]) [%] | SMILES
1 | – | – | – | – | – | – | – | – | 1 | 1 | 20 | 14 | 37 | 1.6 | 4.6 | 49 | Cn1cnnc1C1(F)CCN(c2c(C#N)cc(C3CC3)nc2-c2cnc3nn(C(F)(F)F)cc3c2)CC1 [Example 2]
2 | – | – | – | – | – | – | – | – | 3 | 3 | 10 | 7 | 11 | 6.4 | 4.2 | <12 | Cn1cnnc1C1(F)CCN(c2c(C#N)cc(C(C)(F)F)nc2-c2cnc3nn(C(F)(F)F)cc3c2)CC1 [Example 3]
3 | – | – | – | – | – | – | – | – | 1 | 3 | 31 | 6 | 3.3 | 13 | 2.1 | 16 | Cc1cc(C#N)c(N2CCC(F)(c3nncn3C)CC2)c(-c2cnc3nn(C(F)(F)F)cc3c2)n1 [Example 5]
4 | – | – | – | – | – | – | – | – | 2 | 6 | 226 | 82 | 0.6 | 36.1 | 0.6 | <12 | Cn1cnnc1C1(F)CCN(c2c(C#N)cc(C3CC3(F)F)nc2-c2ccnnc2)CC1 (stereo not drawn) [Example 6]
5 | – | – | – | – | – | – | – | – | 28 | 11 | 117 | 44 | 14 | 5.3 | – | <12 | Cn1cnnc1C1(F)CCN(c2c(C#N)cc(C(F)(F)F)nc2-c2cc3cn(C(C)(C)C)nc3nc2C(F)F)CC1 [Example 14]
6 | – | – | – | – | – | – | – | – | 3 | 1 | 11 | 17 | 34 | 1.8 | 6.0 | – | Cn1cnnc1C1(F)CCN(c2c(C#N)cc(C(F)(F)F)nc2-c2cnc3nn(C(C)(C)C)c(C(F)F)c3c2)CC1 [Example 16]

The remaining lines, values behind:

Row | SMILES | IC50 (QPCTL; Table 3, prior art compounds) [nM] | IC50 (QPCT; Table 3, prior art compounds) [nM] | IC50 ([1]; Table 5, prior art compounds) [nM] | IC50 ([2]; Table 5, prior art compounds) [nM] | Papp A→B ([3]; Caco-2, pH 7.2) [×10⁻⁶ cm/s] | efflux ratio ([3]; Caco-2, pH 7.2) | n-fold induction of CYP3A4 at 10 μM (CYP3A4 mRNA; Table 10, prior art compounds) [n-fold] | Mouse Hepatocyte Stability QH (murine hepatocytes; Table 13, prior art compounds) [%] | IC50 (QPCTL; [4]) [nM] | IC50 (QPCT; [4]) [nM] | IC50 [1, 5] [nM] | IC50 [2, 5] [nM] | Papp A→B [3, 6] [×10⁻⁶ cm/s] | efflux ratio [3, 7] | n-fold induction of CYP3A4 at 10 μM (CYP3A4 mRNA; [8]) [n-fold] | Mouse Hepatocyte Stability QH (murine hepatocytes; [9]) [%]
7 | Cn1cnnc1C1CCN(c2c(C#N)cccc2-c2cncc3c2cnn3C)CC1 [Compound 4, reference compound] | 97 | 313 | > 10000 | 4500 | 0.3 | 28.1 | 0.8 | 92 | – | – | – | – | – | – | – | –
8 | Cn1cnnc1C1CCN(c2c(C#N)cccc2-c2ccc3ocnc3c2)CC1 [Compound 15, reference compound] | 554 | 1080 | 5990 | 3150 | 11 | 5.4 | 8.7 | 65 | – | – | – | – | – | – | – | –
9 | Cn1cnnc1C1CCN(c2c(C#N)cccc2-c2ccc3nonc3c2)CC1 [Compound 19, reference compound] | 117 | 106 | 2810 | 296 | 19 | 3.4 | 15.8 | 62 | – | – | – | – | – | – | – | –
10 | Cn1cnnc1C1CCN(c2c(C#N)cccc2-c2cnc3cn[nH]c3c2)CC1 [Compound 125, reference compound] | 159 | 446 | 4490 | > 10000 | 0.6 | 30.4 | 2.1 | 45 | – | – | – | – | – | – | – | –
11 | Cn1cnnc1C1(F)CCN(c2c(C#N)cc(C3CC3)nc2-c2ccnnc2)CC1 [Example 1] | – | – | – | – | – | – | – | – | 1 | 2 | 107 | 15 | 6.3 | 7 | 1.2 | 49
12 | Cn1cncc1C1CCN(c2c(C#N)cccc2-c2ccc(F)nc2)CC1 [QP5038, reference compound] | – | – | 21 | 6 | – | – | 58.5 | 97 | – | – | – | – | – | – | – | –

From patent publication US20250250251A1, “PIPERIDINYLPYRIDINYLCARBONITRILE DERIVATIVES AS INHIBITORS OF GLUTAMINYL-PEPTIDE CYCLOTRANSFERASE AND GLUTAMINYL-PEPTIDE CYCLOTRANSFERASE LIKE PROTEIN” (Boehringer Ingelheim International GmbH, priority 2024, published 2025)
